# Reference: PMC8669712, “G Protein-Coupled Receptor GPR35 Suppresses Lipid Accumulation in Hepatocytes” (ACS Pharmacology & Translational Science, 2021)
# “Also recorded” adds a separate entry of the source.
# What was measured:
# [1] = system: GPR35 knock-out clones of HepG2 cells; experiment: Oil Red O lipid accumulation in GPR35 knock-out clones of HepG2 cells; assay type: cell-based, human; conditions: lodoxamide 1 × 10^–6 M or 1 × 10^–5 M
# Method: Human hepatocellular carcinoma HepG2 cells were grown in Minimum Essential Medium (MEM) supplemented with 10% fetal bovine serum (FBS), 2 mM L-glutamine, 1× non-essential amino acid, 1 mM sodium pyruvate, and 1× penicillin/streptomycin. Materials for cell culture were all from Sigma-Aldrich (St. Louis, MO) or Thermo Fisher Scientific (Waltham, MA). Cells were incubated in a humidified CO2 incubator at 37 °C. Experiments were performed when cell confluence reached 80%. Cells were seeded onto a 12-well plate (1 × 10^5 cells/well) for 24 h prior to drug treatment. […] Expression of full-length mRNA from the GPR35 gene was eliminated using a dual synthetic gRNA/RNP approach[43] with one guide cutting the intron and one in the exon region to generate a nonfunctional GPR35 protein. The gRNAs were designed with the CRISPR Finder (Welcome Sanger Institute). […] Transfected cells were plated and analyzed for editing efficiency 24-48 h after electroporation. […] To further quantify and capture the genomic DNA deletion, PCR primers listed in Table S1 were designed to amplify the genomic DNA surrounding the target site. […] The amplified PCR products were subjected to paired-end sequencing using NextSeq500 from Illumina using paired-end chemistry with a 150-bp read length. […] The impedance was recorded using xCELLigence RTCA. […] Lipid accumulation was measured by Oil Red O staining.
# [2] = system: high-fat diet-induced wild-type mice; design: method as in PMID 31189299; conditions: oral, 1 mg/kg, final 7 days of a 7-week-diet exposure; cited from earlier work
# [3] = system: GPR35a-reconstituted clone 27 HepG2 cells; experiment: Oil Red O lipid accumulation in GPR35a-reconstituted clone 27 cells; assay type: cell-based, human; conditions: clone 27, 72 h
# Method: (§1) Briefly, CRISPR KO cells were transiently transfected 24 h with the human GPR35a expression vector using LipofectAMINE 3000 reagent, according to the manufacturer’s instructions. […] Alternatively, after 24 h transfection, cells were seeded onto a 12-well plate (1 × 10^5 cells/well) for 24 h at 37 °C. Then, cells were incubated with T0901317 and/or GPR35 agonists (in MEM containing 5% FBS) for 72 h. After the drug treatment, cells were stained with Oil Red O to examine the levels of lipid accumulation. Each experiment was repeated at least three times.
# Lipid accumulation was measured by Oil Red O staining. A working solution of Oil Red O was prepared, as described with modification.[46] After drug treatment, cells were washed with PBS and fixed with formalin solution for 1 h at 4 °C. Then, cells were stained with Oil Red O working solution for 10 min at room temperature. After PBS washing, Oil Red O was extracted from cells using 150 μl of isopropanol and OD510 nm measured. […] These cells were then stained with Hoechst 33342 (1 μg/mL) and the fluorescence intensity of Hoechst (represents the DNA content in cells) was measured using a CLARIOstar plate reader (BMG LABTECH). Oil Red O accumulation was corrected for differences in DNA content and expressed as relative absorbency, taking the control condition (treated with vehicle only) as 1.
# [4] = system: clone 27 HepG2 cells transfected with human GPR35a; experiment: Cellular impedance in clone 27 cells transiently transfected with human GPR35a; assay type: cell-based; conditions: lodoxamide 1 × 10^–8 M
# Method: as §1
# HepG2 cells were seeded onto xCELLigence E plates (2 × 10^4 cells/well) and incubated for 24 h at 37 °C. To evaluate GPR35 activation and its downstream G protein signaling, HepG2 cells or primary mouse hepatocytes were exposed to GPR35 antagonists or G protein inhibitors 1 h (overnight for Pertussis toxin) prior to GPR35 agonist stimulation. After the addition of GPR35 agonist or vehicle control, the impedance (represented as “cell index”) was recorded every 30 s over a 2 h period using xCELLigence RTCA (Agilent). Each experiment was repeated at least three times.
# [5] = system: hepatocytes from hGPR35a-HA-expressing mice; experiment: Oil Red O lipid accumulation in hepatocytes from hGPR35a-HA-expressing mice; assay type: cell-based, mouse
# Method: All mice were bred as WT or homozygous onto a C57BL/6N background. Animals were cared for in accordance with national guidelines on animal experimentation. All animal experiments were conducted under a home office license held by the authors. WT, humanized GPR35a, or KO male mice at 3–4 months of age were used in this study. These mice were fed ad libitum with a standard mouse chow diet. Briefly, mouse primary hepatocytes were isolated using a two-step collagenase perfusion technique.[45] Twelve-well plates or xCELLigence E plates were coated with rat tail collagen I solution (Thermo Fisher Scientific) overnight at 37 °C and washed with PBS. Isolated primary hepatocytes were seeded onto 12-well plates (8 × 10^4 cells/well) or xCELLigence E plates (2 × 10^4 cells/well) in Wiliam’s E medium (Thermo Fisher Scientific) supplemented with 10% fetal bovine serum (FBS) and 1× penicillin/streptomycin. Cells were maintained for 7 days with a fresh medium change every other day. […] Human GPR35 activation was examined using xCELLigence RTCA assay. To access the impact of GPR35 agonists on the lipid accumulation, WT and humanized GPR35 hepatocytes were incubated with T0901317 and/or GPR35 agonists/antagonists, as indicated (in DMEM medium containing 5% FBS and 1.5% BSA) for 48 h. Alternatively, GPR35 KO hepatocytes were incubated with drugs, as indicated for 5 days. In the T0901317 pretreatment model, human GPR35 hepatocytes were stimulated with T0901317 for 2 days and then further treated with lodoxamide for a further 3 days. After each drug treatment, hepatocytes were stained with Oil Red O and quantified as described. Each experiment was repeated at least three times.
# Lipid accumulation was measured by Oil Red O staining. A working solution of Oil Red O was prepared, as described with modification.[46] After drug treatment, cells were washed with PBS and fixed with formalin solution for 1 h at 4 °C. Then, cells were stained with Oil Red O working solution for 10 min at room temperature. After PBS washing, Oil Red O was extracted from cells using 150 μl of isopropanol and OD510 nm measured. After the lipid extraction, cells were further soaked in PBS overnight at 4 °C. These cells were then stained with Hoechst 33342 (1 μg/mL) and the fluorescence intensity of Hoechst (represents the DNA content in cells) was measured using a CLARIOstar plate reader (BMG LABTECH). Oil Red O accumulation was corrected for differences in DNA content and expressed as relative absorbency, taking the control condition (treated with vehicle only) as 1.
smiles,measurement,setting,value
"N#Cc1cc(NC(=O)C(=O)O)c(Cl)c(NC(=O)C(=O)O)c1 [lodoxamide, 2-[2-chloro-5-cyano-3-(oxaloamino)anilino]-2-oxoacetic acid]",suppression of the effect of T0901317 on lipid accumulation in GPR35 knock-out clones,[1],unable to suppress the effect of T0901317
same,effect of treatment in high-fat diet-induced wild-type mice,[2],beneficial effects
same,lipid accumulation induced by T0901317 in GPR35a-reconstituted cells,[3],again able to prevent the lipid accumulation
same,impedance signal in clone 27 cells transfected with human GPR35a,[4],stimulated signal
same,EC50,"[5]; Mus musculus, Hepatocyte, hepatocytes from hGPR35a-HA-expressing mice, co-addition with T0901317 8 × 10^–6 M, 48 h, read-out: EC50 for prevention of T0901317-induced lipid accumulation",17 nM
same,reversal of pre-established lipid accumulation,"[5]; T0901317 8 × 10^–6 M for 2 days, then lodoxamide added with continued T0901317",sufficient to reduce lipid levels to those observed in the absence of T0901317; also recorded: reduced to basal
same,potency in the reversal setting relative to co-addition,[5]; T0901317 pretreatment model,less potent than when added alongside T0901317
